Data: ChEMBL document CHEMBL5579815, “Novel angiogenesis inhibitors with superoxide anion radical amplification effect: Surmounting the Achilles' heels of angiogenesis inhibitors and photosensitizers” (Eur J Med Chem, 2024)
Activity calls are given as the source filed them. The calls are words filed in the database; no cut-off is given here.

Key:
[1] = Induction of ROS generation in methanol solution assessed as reduction in DPBF absorption peak at 10 uM irradiated with 650 nm 10 mW/cm2 light for upto 9 mins by DPBF probe based UV-vis absorption spectra analysis; format: functional
A549 = test: (§1) Cytotoxicity against human A549 cells assessed as reduction in cell viability at 0.008 to 1 uM preincubated for 24 hrs under hypoxic condition followed by media removal and irradiated with 650 nm 10 mW/cm2 light for 15 mins under hypoxic condition prior to media replacement and measured after 24 hrs by MTT assay; format: functional, cell-based; details: dose 0.008-1 µM
U-87 MG = test: as §1, with “U87” for “A549”, “normoxic” for “hypoxic”; format: functional, cell-based; details: U-87MG ATCC, dose 0.008-1 µM
EA.hy 926 [2] = test: as §1, with “Antiangiogenic activity in” for “Cytotoxicity against”, “EA.hy 926” for “A549”, “normoxic” for “hypoxic”; format: functional, cell-based; details: dose 0.008-1 µM
EA.hy 926 [3] = test: as §1, with “Antiangiogenic activity in” for “Cytotoxicity against”, “EA.hy 926” for “A549”; format: functional, cell-based; details: dose 0.008-1 µM
HEK293 = test: Dark toxicity in HEK293 cells assessed as reduction in cell viability at 0.078 to 10 uM by MTT assay; format: cell-based; details: human, hek293, 10 µM; dose 0.078-10 µM
SK-MEL-28 [4] = test: (§2) Induction of apoptosis in human SK-MEL-28 cells assessed as early apoptotic cells at 0.5 uM preincubated for 24 hrs under normoxic condition followed by media removal and irradiated with 650 nm 10 mW/cm2 light for 15 mins under normoxic condition by Annexin V-FITC/propidium iodide staining based flow cytometry (reference value: 1.8%); format: functional
SK-MEL-28 [5] = test: as §2, with “necrotic” for “early apoptotic”, “1” for “0.5”, “2.63%)” for “1.8%)”; format: functional
SK-MEL-28 [6] = test: as §2, with “late” for “early”, “2” for “0.5”, “1.95%)” for “1.8%)”; format: functional
SK-MEL-28 [7] = test: Induction of apoptosis in human SK-MEL-28 cells preincubated for 24 hrs under hypoxic condition followed by media removal and irradiated with 650 nm 10 mW/cm2 light for 15 mins under hypoxic condition by Annexin V-FITC/propidium iodide staining based flow cytometry; format: functional, cell-based; details: dose 0.5-2 µM
SK-MEL-28 [8] = test: Induction of apoptosis in human SK-MEL-28 cells preincubated for 24 hrs under normoxic condition followed by media removal and irradiated with 650 nm 10 mW/cm2 light for 15 mins under normoxic condition by Annexin V-FITC/propidium iodide staining based flow cytometry; format: functional, cell-based; details: dose 0.5-2 µM

**Q.** With `CCN(CC)c1ccc2nc3c4ccccc4/c(=N\CCCCCCNC(=O)c4cc(Oc5ccc(NC(=O)Nc6ccc(Cl)c(C(F)(F)F)c6)cc5)ccn4)cc-3sc2c1` as the compound, how does the Activity [1] read?
**A.** Active

**Q.** What about the Activity (A549) of the same compound?
**A.** Active

**Q.** What about the Activity (U-87 MG) of the same compound?
**A.** Active

**Q.** What about the Activity (EA.hy 926 [2]) of the same compound?
**A.** Active

**Q.** What about the Activity (EA.hy 926 [3]) of the same compound?
**A.** Active

**Q.** What about the Activity (HEK293) of the same compound?
**A.** Non-Toxic

**Q.** And the Activity (SK-MEL-28 [4])?
**A.** 12.86%

**Q.** And the Activity (SK-MEL-28 [5])?
**A.** 23.01%

**Q.** What about the Activity (SK-MEL-28 [6]) of the same compound?
**A.** 26.72%

**Q.** And the Activity (SK-MEL-28 [7])?
**A.** Dose-Dependent Effect

**Q.** And the Activity (SK-MEL-28 [8])?
**A.** Dose-Dependent Effect
